“Also recorded” adds a separate entry of the source. Where no end group is shown, it is not given here.
Legend:
[1] = system: CD3+ T cells and antigen presenting cells (APC); assay: Fluorescent peptide binding to PBMCs from MS patients by flow cytometry; type: cell-based, human; conditions: fluorescenated peptides
Protocol: In some embodiments, the size (length—i.e. number of amino acids) of the peptide may matter for disease prevention capacity. […] In some embodiments, use of different length peptides may be advantageous in treatment of different diseases as each disease may be driven primarily by one cell type or another.
Peripheral blood mononuclear cells from MS patients were stained then gated on CD3^+ for T cells or on CD3^− for antigen presenting cells (APC) were analyzed for peptide binding levels. Different cells bind different peptides with different intensities as determined by flow cytometry. There were 24 subjects in each test.

C57BL/6 mice = assay: EAE mouse model, daily clinical score; type: in vivo
Description: EAE was then induced and the mice started to show symptoms on day 10, which is standard for these mice under these conditions. This is further depicted in FIG. 11. On days 13, 20, and 27, the KGYY6 group of mice receive a boost of peptide, while the other group again received PBS via IV injection. […] By day 13, there was a statistically significant difference that lasted throughout the experiment. In FIG. 11—*—asterisks—denote p-value: *—one asterisk is <0.05; **—two asterisks is <0.01; ***—three asterisks is <0.001; and ****-four asterisks is <0.0001. This is a two-way ANOVA with Sidak's multiple comparisons test. Arrows in above lines in FIG. 11 represent days −3, −1, 13, 20, and 27, which correspond to days on which the mice received the KGYY6. Mice were disease scored daily in this study as described in more detail below. […]
All mice were monitored daily for disease and scored in the following manner: 0—no abnormalities; 0.5—clutching hind limbs; 1—limp tail or weak hind limbs and/or wobbly gait; 1.5—limp tail and clutching hind limbs; 2—limp tail and weak hind limbs and/or wobbly gait wherein the mouse supports itself and propels itself using hind limbs; 2.5—limp tail and weak hind limbs and/or wobbly gait wherein the mouse cannot support and propel itself using hind limbs, but the paws are moving. […]

ApoE−/− mice = assay: Glucose tolerance testing in ApoE-/- mice; type: in vivo, mouse; conditions: n=14
NOD mice [2] = assay: Diabetes prevention in NOD mice treated with peptides; type: in vivo, mouse; conditions: for diabetes onset (blood glucose >250 mg/dl): NOD mice treated with different sizes of peptides, n=10
Protocol: (a) The amino acid sequence of mouse CD154 is depicted, with amino acids known to interact with CD40 shown in bold. A 15 amino acid sequence is highlighted in grey and aligned with the same motif in human CD154. A previously studied peptide is highlighted. (b) NOD mice were treated with different sizes of peptides, as indicated (n=10 in all groups). Mice were monitored for diabetes onset (blood glucose >250 mg/dl). Differences were significant by two-way ANOVA; p<0.0001.
FIG. 3 includes sub-parts FIGS. 3A and 3B. […] The percent of subjects that developed diabetes in the KGYY15 subjects was much lower, as compared with the RGD peptide and the scrambled peptide. KGYY15 diabetes prevention is sequence dependent, and several amino acid positions are critical for its function. (a) KGYY15-treated mice were compared with mice treated with a scrambled peptide or a peptide targeting the RGD region (sequences indicated above the graph). (b) KGYY15-treated mice were compared with mice treated with a 15-mer peptide series in which single amino acids, as indicated, were substituted for glycine. L137; Y144; T146; M147; N150; n=10 in all groups shown in (a) and (b), except for L137, where n=9. Differences were significant by two-way ANOVA; p<0.0001

NOD mice [3] = assay: Reversal of overt hyperglycemia in new onset diabetic NOD mice, daily KGYY15; type: in vivo, mouse
Protocol: FIG. 2, which includes FIG. 2A-2D, is based on a study of the use of KGYY15 to treat NOD mice. […] Immediately after diabetes onset (blood glucose >250 mg/dl; n=9), mice were treated daily with KGYY15 and blood glucose was monitored. […] FIG. 2C is a graph showing Islet insulitis scores in reversed and non-reversed mice: 0, no infiltration (black); 1, 25% infiltration (striped); 2, 50% infiltration (dark grey); 3, 75% infiltration (light grey); 4, 100% infiltration (white). FIG. 2D is a graph showing Islet insulin granulation scores: 0, less than 25% granulation; 1, 25-50% granulation; 2, 50-75% granulation; […], 75-100% granulated. Data is represented as the mean±SEM; ****p<0.0001 by two-tailed unpaired t test.

NOD mice [4] = assay: Immunogenicity: serum antibodies to KGYY15 or sCD154 by western blot; type: in vivo, mouse; conditions: 1 mg/kg weekly for 7 weeks
Protocol: (§1) NOD mice were injected weekly for 7 weeks with 1 mg/kg of KGYY15. In FIG. 4A, serum was collected from injected or control mice and used, followed by anti-mouse-IgG secondary antibody, in western blots for detection of KGYY15 peptide or soluble CD154 (sCD154; KGYY15 and sCD154 sizes are indicated with arrows). […] As a standard, KGYY15-biotin was run and detected with streptavidin-HRP. Experiment was done twice, pooling serum from 2 and 3 mice in each experiment, respectively. In FIGS. 4B and 4C, sorted splenic APC from KGYY15 treated mice were loaded with KGYY15 or not. T cells from KGYY15 treated mice were CFSE labelled then exposed to the autologous APC (+/− KGYY15) and incubated for 5 days. […] Representative histogram of CFSE dilution: Black line—T cells alone; Grey tinted—T cells+APC alone; Dotted line—T cells+APC loaded with KGYY15. Graph depicts cumulative data (n=5 in each group).

[5] = system: T cells from KGYY15 treated mice; assay: T cell proliferation (CFSE dilution) with autologous APC loaded with KGYY15; type: cell-based, mouse; conditions: APC +/- KGYY15, 5 days, n=5
Protocol: as §1

T1D dogs = assay: Longstanding T1D domestic dogs treated with i.v. infusions of dog 15-mer peptide; type: in vivo; conditions: before first infusion vs several weeks after initiation
Protocol: Four longstanding T1D domestic dogs were treated with i.v. infusions of dog 15-mer peptide, twice in the first week then weekly thereafter. Levels of fructosamine were measured before the first infusion and several weeks after initiation of treatment.

Substance: 6-mer: fluorescenated version of the 6-mer peptide used to stain PBMCs from MS patients (AKKGYY; also: fluorescent label)
- binding to T cells compared with APCs [1]: stained both T cells and APCs equally well

Substance: 15-mer: fluorescenated version of the 15-mer peptide used to stain PBMCs from MS patients (VLRWAPKGYYTISSN; also: fluorescent label)
- binding to T cells compared with APCs [1]: bound better to T cells than APCs

Substance: AKKGYY [KGYY6]
- severity of EAE (disease course, clinical score) (C57BL/6 mice; i.v. pretreatment before EAE induction plus boosts, vs PBS control): significantly less severe; also recorded: ameliorates EAE; also recorded: significantly reduced the severity of the EAE symptoms
- severity of EAE (C57BL/6 mice; no pretreatment, treatment delayed until visible disease symptoms): may significantly reduce the severity of EAE
- glucose tolerance (ApoE−/− mice): statistically significant improvement
- insulin sensitivity (ApoE−/− mice): statistically significant improvement; also recorded: may improve

Substance: VLQWAKKGYYTMKSN (VLQWAKKGYYTMKSK) [KGYY15]
- diabetes onset (blood glucose >250 mg/dl) (NOD mice [2]): prevent the onset of T1D
- diabetes onset (blood glucose >250 mg/dl) (NOD mice [2]; listed as 15-mer CD154-derived peptide): prevents diabetes
- percent of subjects that developed diabetes (NOD mice [2]; NOD mice, 35 weeks, compared with RGD peptide and scrambled peptide): much lower
- reversal of overt hyperglycemia (NOD mice [3]; NOD mice treated daily after diabetes onset, n=9): reverses overt hyperglycemia
- mice with reversed hyperglycemia (NOD mice [3]; new onset diabetic mice): approximately 60%
- antibody production to the peptide (NOD mice [4]; serum western blot): no antibodies to the peptide had been generated; also recorded: does not elicit antibody production
- immunogenicity (NOD mice [4]; NOD mice, 1 mg/kg): does not appear to be immunogenic
- T cell proliferation by CFSE dilution [5]: no proliferation was detected

Substance: VLRWA PKGYY TISSN (chain 1 VLRWAPKGYYTISSN; chain 2 VLRWAPKGYYTISSN) [Dog 15-mer peptide]
- fructosamine levels (T1D dogs): significantly decreases fructosamine levels
